The record followed here is US20220324835A1 (Nurix Therapeutics, Inc., priority 2018, published 2022).

Like-named read-outs stand apart in the source and are kept apart here.

One assay relates to primary human B cells. The assay is described as follows: B cell activation assay (CD69 on anti-IgM stimulated B cells). The assay is classed as cell-based. Particulars: AUC of dose response curve (10 μM to 1 nM) of CD69 MFI normalized to DMSO control. How it is done: Peripheral blood mononuclear cells (PBMC) were obtained either: 1) by using Ficoll-Paque™ (GE Healthcare) for separation of peripheral blood hematopoietic cells from buffy coats of healthy human donors; or 2) directly from LeukoPak donations. Human primary B cells were isolated from the PBMCs utilizing negative selection with commercial kits following the manufacturer's protocol (StemCells Catalog #17954) to yield >95% CD20+ cells assessed by flow cytometry. Primary human B cells were plated at 0.7-1×10^5 per well in a 96-well plate with Cbl-b inhibitors over a dose ranging from 10 μM to 1 nM and incubated at 37° C. 5% CO2, with a final DMSO concentration of <0.5%. Cells were stimulated with anti-IgM for 20 hours at 37° C. 5% CO2. Surface activation markers on mature CD20^+ IgD^+ B cells were monitored by FACS using an anti-CD69 antibody (BD Biosciences).
Cbl-b inhibitors were tested to determine their ability to induce or enhance surface expression of cell surface markers on B cells (e.g., CD69), which is indicative of B cell activation.
Readouts were reported as area under curve (AUC) of the dose response curve of CD69 mean fluorescence intensity (MFI) normalized to the DMSO control. Baseline for this study was the measurement obtained from primary human B cells treated with DMSO in the presence of 2.5 μg/mL of anti-IgM-F(ab′)2. […] Compounds were ranked into bins according to their readouts as follows: A indicates ≤0.5, B indicates 0.5-1.00, C indicates 1.01-1.50, and D indicates ≥1.51.

A further assay has as its system primary human NK cells. The assay is described as follows: NK cell activation assessed by cytokine secretion (coculture with K562 NucRed target cells). Particulars: for fold induction at 0.625 µM: 0.625 μM compound; for fold induction at 2.5 µM: 2.5 μM compound. The assay is classed as cell-based. How it is done: Peripheral blood mononuclear cells (PBMC) were obtained either: 1) by using Ficoll-Paque™ (GE Healthcare) for separation of peripheral blood hematopoietic cells from buffy coats of healthy human donors; or 2) directly from LeukoPak donations. […] The cells were cultured overnight with IL-2 (60 ng/mL) at 37° C. 5% CO2. Cbl-b inhibitors were added 1 hour prior to stimulation and incubated at 37° C. 5% CO2 at a specific concentration (e.g., 10 μM, 1 μM, or 0.1 μM) with a final DMSO concentration of <0.1%. NK cells were co-cultured with target cells that were engineered to have a red nucleus (K562 NucRed) measurable by flow cytometry. […] The cells were mixed at the indicated ratios (e.g., 5:1, 1:1, or 1:5) of NK (effector cells) to K562 NucRed (target cells) for 6 hours. Cell free supernatants were collected and analyzed for cytokine secretion (e.g. TNFα, IFNγ, or MIP1β) by ELISA or Luminex multiplex kits following the manufacturer's protocol. IFNγ secretion was assessed using an R&D Systems ELISA kit (Catalog #DY285), TNFα secretion was assessed using an R&D Systems ELISA kit (Catalog #DY210), and MIP1β secretion was assessed using an R&D Systems ELISA kit (Catalog #DY271).
Readouts were reported as fold change over baseline. Baseline for this study was the measurement obtained from primary human NK effector cells cocultured with K562 NucRed target cells in the absence of a Cbl-b inhibitor. For NK cells cocultured with K562 NucRed cells, changes greater than 2.0-fold over baseline for cytokine secretion were considered a positive response (Table 10a and 10b).

Where [1] appears, read: K562, NK cells cocultured with K562 NucRed, 1:1 E/T, read-out: IFNγ secretion, fold change over baseline.
The mark [2] stands for this setting: K562, NK cells cocultured with K562 NucRed, 1:1 E/T, read-out: TNFα secretion, fold change over baseline.
The mark [3] stands for this setting: K562, NK cells cocultured with K562 NucRed, 1:1 E/T, 10 μM compound, read-out: IFNγ secretion, fold change over baseline.
[4] abbreviates: K562, NK cells cocultured with K562 NucRed, 1:1 E/T, 10 μM compound, read-out: TNFα secretion, fold change over baseline.
Where [5] appears, read: K562, 1:1 E/T, read-out: IFNγ secretion.
[6] abbreviates: K562, 1:1 E/T, read-out: MIP1β secretion.
The mark [7] stands for this setting: K562, 1:1 E/T, read-out: TNFα secretion.
The mark [8] stands for this setting: K562, 1:1 E/T, 10 μM, read-out: IFNγ secretion.
Setting [9] is: K562, 1:1 E/T, 10 μM, read-out: MIP1β secretion.
[10] abbreviates: K562, 1:1 E/T, 10 μM, read-out: TNFα secretion.
The mark [11] stands for this setting: K562, 5:1 E/T, read-out: IFNγ secretion.
[12] abbreviates: K562, 5:1 E/T, read-out: MIP1β secretion.
[13] abbreviates: K562, 5:1 E/T, read-out: TNFα secretion.
Where [14] appears, read: K562, 5:1 E/T, 10 μM, read-out: IFNγ secretion.
The mark [15] stands for this setting: K562, 5:1 E/T, 10 μM, read-out: MIP1β secretion.
The mark [16] stands for this setting: K562, 5:1 E/T, 10 μM, read-out: TNFα secretion.

Take `C[C@H](Cc1nncn1C)c1cccc(NC(=O)c2cccc(C(F)(F)F)n2)c1` [Compound 183a, (R)-N-(3-(1-(4-methyl-4H-1,2,4-triazol-3-yl)propan-2-yl)phenyl)-6-(trifluoromethyl)picolinamide]: the “CD69 MFI AUC” value in the assay on primary human B cells is listed as “C (C indicates 1.01-1.50)”. Also, the fold induction at 0.625 µM in the assay with primary human NK cells (setting [1]) fell in the range of 2.01 to 5; in the assay on primary human NK cells (setting [2]), 1.01 to 2. Also, the fold induction at 2.5 µM with primary human NK cells (setting [1]) and with primary human NK cells (setting [2]) was 2.01 to 5 each time. Besides, the fold induction at 10 µM with primary human NK cells (setting [3]) and with primary human NK cells (setting [4]) was 2.01 to 5 in each case.

Consider `C[C@H](Cc1nncn1C)c1cccc(NC(=O)c2cc(C3CC3)cc(C(F)(F)F)n2)c1` [Compound 191, (R)-4-cyclopropyl-N-(3-(1-(4-methyl-4H-1,2,4-triazol-3-yl)propan-2-yl)phenyl)-6-(trifluoromethyl)picolinamide], for which the fold induction at 1 µM lay within 2.01 to 5 with primary human NK cells (setting [5]); 1.01 to 2 in the assay on primary human NK cells (setting [6]); 2.01 to 5 with primary human NK cells (setting [7]); 2.01 to 5 with primary human NK cells (setting [11]); 1.01 to 2 in the assay on primary human NK cells (setting [12]); 2.01 to 5 in the assay with primary human NK cells (setting [13]). The fold induction at 10 µM in the assay on primary human NK cells (setting [8]) is 2.01 to 5; in the assay on primary human NK cells (setting [9]), 1.01 to 2; with primary human NK cells (setting [10]) it was 1.01 to 2; in the assay on primary human NK cells (setting [14]), more than 5; in the assay on primary human NK cells (setting [15]), 1.01 to 2; in the assay on primary human NK cells (setting [16]) it was 2.01 to 5.

`Cc1cc(C(=O)Nc2cccc([C@H](C)Cc3nncn3C)c2)nc(C2CC2)n1` [Compound 195, (R)-2-cyclopropyl-6-methyl-N-(3-(1-(4-methyl-4H-1,2,4-triazol-3-yl)propan-2-yl)phenyl)pyrimidine-4-carboxamide]: the “CD69 MFI AUC” value in the assay on primary human B cells is listed as “D (D indicates ≥1.51)”. In addition, the fold induction at 1 µM with primary human NK cells (setting [5]) lay within 2.01 to 5; in the assay on primary human NK cells (setting [6]), 1.01 to 2; with primary human NK cells (setting [7]) it was 2.01 to 5; in the assay on primary human NK cells (setting [11]) it was 2.01 to 5; with primary human NK cells (setting [12]), 2.01 to 5; in the assay on primary human NK cells (setting [13]) it was 2.01 to 5. The fold induction at 10 µM is 2.01 to 5 in the assay with primary human NK cells (setting [8]); 2.01 to 5 in the assay on primary human NK cells (setting [9]); 2.01 to 5 with primary human NK cells (setting [10]); more than 5 in the assay on primary human NK cells (setting [14]); 2.01 to 5 in the assay with primary human NK cells (setting [15]); more than 5 with primary human NK cells (setting [16]). For the same compound, the fold induction at 10 µM was more than 5 with primary human NK cells (setting [3]) and 2.01 to 5 with primary human NK cells (setting [4]). Besides, the fold induction at 0.625 µM in the assay with primary human NK cells (setting [1]) fell in the range of 2.01 to 5; in the assay with primary human NK cells (setting [2]) it was 1.01 to 2. Further, the fold induction at 2.5 µM in the assay on primary human NK cells (setting [1]) and in the assay on primary human NK cells (setting [2]) was 2.01 to 5 throughout.

On to `C[C@H](Cc1nncn1C)c1cccc(NC(=O)c2cc(C(=O)N3CC[C@H](O)C3)cc(C(F)(F)F)n2)c1` [Compound 220, 4-((S)-3-hydroxypyrrolidine-1-carbonyl)-N-(3-((R)-1-(4-methyl-4H-1,2,4-triazol-3-yl)propan-2-yl)phenyl)-6-(trifluoromethyl)picolinamide], for which the fold induction at 1 µM in the assay with primary human NK cells (setting [5]), in the assay on primary human NK cells (setting [6]), in the assay on primary human NK cells (setting [7]), in the assay on primary human NK cells (setting [11]), in the assay on primary human NK cells (setting [12]) and with primary human NK cells (setting [13]) was 1.01 to 2 each time. The fold induction at 10 µM in the assay on primary human NK cells (setting [8]), in the assay on primary human NK cells (setting [9]), in the assay on primary human NK cells (setting [10]), in the assay on primary human NK cells (setting [14]), with primary human NK cells (setting [15]) and in the assay on primary human NK cells (setting [16]) was 2.01 to 5 throughout.

As to `C[C@H](Cc1nncn1C)c1cccc(N2Cc3c(cccc3C(F)(F)F)C2=O)c1` [Compound 255a, (R)-2-(3-(1-(4-methyl-4H-1,2,4-triazol-3-yl)propan-2-yl)phenyl)-4-(trifluoromethyl)isoindolin-1-one], the “CD69 MFI AUC” value in the assay with primary human B cells is “C (C indicates 1.01-1.50)”. Further, the fold induction at 1 µM with primary human NK cells (setting [5]) is 1.01 to 2; in the assay with primary human NK cells (setting [6]), less than 1; in the assay with primary human NK cells (setting [7]) it was less than 1; in the assay on primary human NK cells (setting [11]), 1.01 to 2; in the assay on primary human NK cells (setting [12]), less than 1; in the assay with primary human NK cells (setting [13]) it was less than 1. The fold induction at 10 µM in the assay with primary human NK cells (setting [8]) was 2.01 to 5; in the assay on primary human NK cells (setting [9]), 1.01 to 2; in the assay on primary human NK cells (setting [10]) it was less than 1; with primary human NK cells (setting [14]), more than 5; with primary human NK cells (setting [15]), 1.01 to 2; with primary human NK cells (setting [16]), less than 1. Further, the fold induction at 10 µM in the assay on primary human NK cells (setting [3]) and in the assay on primary human NK cells (setting [4]) was 2.01 to 5 in each case. For the same compound, the fold induction at 0.625 µM in the assay with primary human NK cells (setting [1]) and in the assay with primary human NK cells (setting [2]) was 1.01 to 2 throughout. Further, the fold induction at 2.5 µM in the assay with primary human NK cells (setting [1]) and in the assay on primary human NK cells (setting [2]) was 1.01 to 2 in each case.

Turning to `Cn1cnnc1C(F)(F)[C@](C)(F)c1cccc(N2Cc3c(cc(CN4CC[C@H](F)C4)cc3C(F)(F)F)C2=O)c1` [Compound 447, 6-(((S)-3-fluoropyrrolidin-1-yl)methyl)-2-(3-((R)-1,1,2-trifluoro-1-(4-methyl-4H-1,2,4-triazol-3-yl)propan-2-yl)phenyl)-4-(trifluoromethyl)isoindolin-1-one], the fold induction at 1 µM in the assay on primary human NK cells (setting [5]) is 2.01 to 5; in the assay on primary human NK cells (setting [6]), less than 1; in the assay with primary human NK cells (setting [7]) it was 2.01 to 5; with primary human NK cells (setting [11]), more than 5; with primary human NK cells (setting [12]), 1.01 to 2; with primary human NK cells (setting [13]), 2.01 to 5. For the same compound, the fold induction at 10 µM with primary human NK cells (setting [8]) was more than 5; in the assay with primary human NK cells (setting [9]), 1.01 to 2; with primary human NK cells (setting [10]), 2.01 to 5; in the assay on primary human NK cells (setting [14]) it was more than 5; with primary human NK cells (setting [15]) it was 2.01 to 5; in the assay with primary human NK cells (setting [16]), more than 5.

As for `Cn1cnnc1C(F)(F)[C@](C)(F)c1cccc(N2Cc3c(cc(CN4CCC(F)(F)C4)cc3C(F)(F)F)C2=O)c1` [Compound 448, (R)-6-((3,3-difluoropyrrolidin-1-yl)methyl)-2-(3-(1,1,2-trifluoro-1-(4-methyl-4H-1,2,4-triazol-3-yl)propan-2-yl)phenyl)-4-(trifluoromethyl)isoindolin-1-one], the fold induction at 1 µM in the assay with primary human NK cells (setting [5]), in the assay with primary human NK cells (setting [6]), in the assay with primary human NK cells (setting [7]), in the assay on primary human NK cells (setting [11]), with primary human NK cells (setting [12]) and with primary human NK cells (setting [13]) was 1.01 to 2 in each case. Besides, the fold induction at 10 µM in the assay on primary human NK cells (setting [8]) is more than 5; in the assay on primary human NK cells (setting [9]), 2.01 to 5; with primary human NK cells (setting [10]), 2.01 to 5; in the assay with primary human NK cells (setting [14]) it was more than 5; in the assay on primary human NK cells (setting [15]), 2.01 to 5; with primary human NK cells (setting [16]), 2.01 to 5.
